Experimental data published in paper PMC8366683 (Future oncology (London, England), 2013).
Read-outs that look alike come from different tables or passages of the source.

Tests used:
HEK293/pcDNA3.1 [1] = experiment: cells; conditions: Homo sapiens, HEK293, 72 h, read-out: IC50 ± SD^†; nM (resistance fold) / HEK293/pcDNA3.1
ABCG2-482-R2 = experiment: cells; conditions: 72 h, read-out: IC50 ± SD^†; nM (resistance fold) / ABCG2-482-R2
ABCG2-482-G2 = experiment: cells; conditions: 72 h, read-out: IC50 ± SD^†; nM (resistance fold) / ABCG2-482-G2
ABCG2-482-T7 = experiment: cells; conditions: 72 h, read-out: IC50 ± SD^†; nM (resistance fold) / ABCG2-482-T7
KB-3-1 = experiment: cells; conditions: Homo sapiens, KB 3-1, 72 h, read-out: IC50 ± SD^†; nM (resistance fold) / KB-3-1
KB-C2 = experiment: cells; conditions: Homo sapiens, KB-C2, 72 h, read-out: IC50 ± SD^†; nM (resistance fold) / KB-C2
HEK/ABCB1 = experiment: cells; conditions: 72 h, read-out: IC50 ± SD^†; nM (resistance fold) / HEK/ABCB1
HEK293/pcDNA3.1 [2] = experiment: cells; conditions: Homo sapiens, HEK293, 72 h, read-out: IC50 ± SD^†; nM (resistance fold) / HEK293/pcDNA3.1; remark: listed apart in the source
ABCB1 (P-glycoprotein) = ABCB1 (P-glycoprotein) (Homo sapiens, UniProt P08183); experiment: competition of […]-IAAP photoaffinity labeling; format: binding
ABCB1 (P-glycoprotein), sequence (P08183 whole entry): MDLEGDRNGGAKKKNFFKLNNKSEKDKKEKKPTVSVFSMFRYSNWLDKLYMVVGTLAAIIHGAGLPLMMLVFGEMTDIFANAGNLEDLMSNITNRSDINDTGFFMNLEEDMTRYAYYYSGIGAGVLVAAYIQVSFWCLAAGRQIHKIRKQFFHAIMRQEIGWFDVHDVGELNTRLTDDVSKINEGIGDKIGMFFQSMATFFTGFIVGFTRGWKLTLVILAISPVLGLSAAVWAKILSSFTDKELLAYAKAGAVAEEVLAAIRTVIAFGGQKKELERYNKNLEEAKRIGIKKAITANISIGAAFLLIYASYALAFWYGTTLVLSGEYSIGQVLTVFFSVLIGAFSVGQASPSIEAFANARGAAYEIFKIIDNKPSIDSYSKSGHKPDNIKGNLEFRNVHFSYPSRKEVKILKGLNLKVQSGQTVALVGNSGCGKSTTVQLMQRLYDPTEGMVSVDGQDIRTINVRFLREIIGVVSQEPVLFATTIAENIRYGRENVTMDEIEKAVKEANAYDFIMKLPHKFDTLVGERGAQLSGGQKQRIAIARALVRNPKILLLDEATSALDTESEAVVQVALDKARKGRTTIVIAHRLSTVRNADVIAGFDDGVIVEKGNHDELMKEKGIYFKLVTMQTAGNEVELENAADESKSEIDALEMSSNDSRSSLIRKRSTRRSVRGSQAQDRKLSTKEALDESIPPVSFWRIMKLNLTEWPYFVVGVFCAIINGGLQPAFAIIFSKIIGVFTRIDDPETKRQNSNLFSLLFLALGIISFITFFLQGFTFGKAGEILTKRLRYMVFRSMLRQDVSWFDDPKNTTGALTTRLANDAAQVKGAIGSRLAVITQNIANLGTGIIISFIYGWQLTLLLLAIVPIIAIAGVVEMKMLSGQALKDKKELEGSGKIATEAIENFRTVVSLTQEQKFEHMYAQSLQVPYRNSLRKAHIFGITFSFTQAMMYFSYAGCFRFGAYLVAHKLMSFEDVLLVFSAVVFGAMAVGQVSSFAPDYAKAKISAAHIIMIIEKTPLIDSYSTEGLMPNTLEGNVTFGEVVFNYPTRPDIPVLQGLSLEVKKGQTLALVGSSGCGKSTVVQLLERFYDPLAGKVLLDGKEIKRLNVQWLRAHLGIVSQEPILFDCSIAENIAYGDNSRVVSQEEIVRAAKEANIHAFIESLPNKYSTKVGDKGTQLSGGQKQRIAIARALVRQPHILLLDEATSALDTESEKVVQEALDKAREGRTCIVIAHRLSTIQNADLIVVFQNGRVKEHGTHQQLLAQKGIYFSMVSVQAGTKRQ

Structure (SMILES)	IC50 (HEK293/pcDNA3.1 [1]) [nM]	IC50 (ABCG2-482-R2) [nM]	IC50 (ABCG2-482-G2) [nM]	IC50 (ABCG2-482-T7) [nM]	other results
COc1cccc2c1C(=O)c1c(O)c3c(c(O)c1C2=O)C[C@@](O)(C(=O)CO)C[C@@H]3O[C@H]1C[C@H](N)[C@H](O)[C@H](C)O1 [Doxorubicin]	16.6	62.1	168	133	
CCc1c2c(nc3ccc(O)cc13)-c1cc3c(c(=O)n1C2)COC(=O)[C@]3(O)CC [SN-38]	2.1	71.6	152	162	
CC[C@]1(O)C[C@@H]2CN(CCc3c([nH]c4ccccc34)[C@@](C(=O)OC)(c3cc4c(cc3OC)N(C)[C@H]3[C@@](O)(C(=O)OC)[C@H](OC(C)=O)[C@]5(CC)C=CCN6CC[C@]43[C@@H]65)C2)C1 [Vinblastine]					IC50 (KB-3-1): 0.2 nM; IC50 (KB-C2): 34.4 nM
CC[C@]1(O)C[C@H]2CN(CCc3c([nH]c4ccccc34)[C@@](C(=O)OC)(c3cc4c(cc3OC)N(C=O)[C@H]3[C@@](O)(C(=O)OC)[C@H](OC(C)=O)[C@]5(CC)C=CCN6CC[C@]43[C@@H]65)C2)C1 [Vincristine]					IC50 (HEK/ABCB1): 1410 nM; IC50 (HEK293/pcDNA3.1 [2]): 4.1 nM
O=C1c2c(O)ccc(O)c2C(=O)c2c(NCCNCCO)ccc(NCCNCCO)c21 [mitoxantrone]	35.7	167	179	190	
CC(=O)O[C@H]1C(=O)[C@@]2(C)[C@H]([C@H](OC(=O)c3ccccc3)[C@]3(O)C[C@H](OC(=O)[C@H](O)[C@@H](NC(=O)c4ccccc4)c4ccccc4)C(C)=C1C3(C)C)[C@]1(OC(C)=O)CO[C@@H]1C[C@@H]2O [paclitaxel]					IC50 (KB-3-1): 6.5 nM; IC50 (KB-C2): 4930 nM; IC50 (HEK/ABCB1): 8480 nM; IC50 (HEK293/pcDNA3.1 [2]): 28.3 nM
COc1cc2nccc(Oc3ccc(NC(=O)Nc4cc(C)on4)c(Cl)c3)c2cc1OC [tivozanib]					IC50 (ABCB1 (P-glycoprotein)): 2900 nM
